The values that follow come from patent US9452185B2, “Mesenchymal stem cells and supports for tissue regeneration, repair and reconstruction” (THE TEXAS A&M UNIVERSITY SYSTEM, priority 2009, dated 2016).

Common to all, as to format: cell-based, human
Test [1] deals with hMSCs. In words: Alkaline phosphatase (ALP) activity of hMSCs in osteogenic media. On the procedure: For non-mineralizing osteogenic differentiation, hMSCs were plated in 12-well plates at 100 cells cm^−2. Upon reaching about 70% confluency, the media was changed to osteogenic base media (OBM) containing 50 μg mL^−1 ascorbic acid and 5 mM β-glycerol phosphate and either GW9662 or DMSO. Media was changed every 2 days for 8-10 days following measurement of ALP activity. For this purpose, the monolayer was washed with PBS and then with ALP reaction buffer (100 mM Tris-HCl, pH 9, containing 100 mM KCl and 1 mM MgCl2). One half mL of ALP buffer then 0.5 mL p-nitrophenol phosphate (PNPP) was rapidly added to the wells. ALP activity was measured as the rate of PNPP conversion to p-nitrophenolate by monitoring the absorbance at 405 nm every 30 seconds for 9 minutes using a plate reader. The rates were normalized against cell number and statistically analyzed using one-way analysis of variance (ANOVA) and Tukey post test for multiple comparisons or by Student's t-test, for single, unrelated comparisons.
Early osteogenic differentiation and alkaline phosphatase assays. MSCs were plated in 6-well plates at an initial plating density of 100 cells per cm^2 and cultured in standard complete media for 6 days until semi-confluence (approximately 5,000 cells per cm^2). Osteogenic base media consisting of complete media containing 5 mM β-GP and 50 μg mL^−1 ascorbate-2-phosphate and the appropriate inhibitor or vehicle was then used to induce early osteogenic differentiation. Assays were allowed to proceed for 8-10 days with changes of media every 2 days. ALP assays were performed as previously described (Gunn et al., 2006, Stem Cells 24:986-991).
In order to characterize the influence of 7AIPM on osteogenic differentiation, hMSC's from two donors were cultured as described elsewhere herein with the addition of varying concentrations of the compound or vehicle to the media. Samples of the media were collected daily for analysis. These samples were analyzed for the presence of OPG and Dkk-1 using ELISA. Alkaline phosphatase activity of the monolayers and cell numbers were measured using a spectrophotometer.

Test [2] concerns hMSCs. In words: ECM production by hMSC monolayers (nodules, recovered volume, calcium). As to the method:
Micro computer aided tomography (μCT) briefly included scanning of identical calvaria over 360° using a 50 kV beam with a camera resolution of 12 μm. Images were captured every 0.4° with flat field correction and frame averaging enabled. Using mock specimens, grayscale ranges were calibrated over intact bone, partially formed bone and radiolucent tissue over a fixed linear range (corresponding to approximately −100 to +1000 Hounsfield units). Axial reconstructions were generated from the scans and quantified using a appropriate CT software. Once again, each reconstruction parameter was identical and performed over a fixed and linear intensity range in each case so as to reproducibly distinguish bone, partial bone and radiolucent tissue. In each case, ring artifact, smoothing, and beam hardening corrections were enabled. Three dimensional renderings for qualitative appraisal were generated using one or more volume software. Measurements of recovered matrix volume were performed using similar parameters, but the beam power was lowered to 30 kV. For extracellular matrix (ECM) production, hMSC monolayers were treated for 8 days with GW9662 or control OBM media in the usual manner described previously. Mineralizing osteogenic media was then added for a further 10 days with changes every 2 days. Hereafter, all volumes refer to a single 150 cm^2 monolayer culture. Monolayers were washed in PBS and frozen at −80° C. to disrupt cell membranes, thawed to ambient temperature and scraped from the culture plate. Recovered cells and ECM were then pelleted by centrifugation (1,800 G) and suspended in 10 mL of lysis buffer consisting of PBS containing 0.1% (v/v) Triton X100, 1 mM MgCl2, 10 μg mL^−1 DNAse I and 10 μg mL^−1 RNAseA. […] Calcium levels in matrices described were determined using an acid hydrolysis ArsenazoIII method previously described by others. […] Colorimetric determination of calcium was performed by addition of Arsenazo III compound and monitoring the change in absorbance at 595 nm using a plate reader.

Test [3] has as its system hMSCs. Put plainly: Membrane integrin expression by flow cytometric analysis. Also on record: CD49a x-mean / CD49b x-mean / CD49c x-mean / CD49e x-mean / CD51 x-mean / CD29 x-mean / CD36 x-mean / CD44 x-mean: unit not given here. As to the method:
For immunophenotyping, MSCs were recovered by brief trypsinization and incubated with one or more fluorophore-tagged antibodies or respective isotype controls for 30 min in a phosphate-buffered saline (PBS) containing 2% (v/v) FBS. After about three washes, a minimum of 20,000 cells were analyzed on a flow cytometer and data processed using machine-compatible software. Antibodies against the following cell surface antigens were used, including CD11b (clone BEAR1), CD14 (RM052), CD19 (J3-119), CD29 (MAR4), CD34 (581), CD36 (FA6.152), CD44 ([…]-26), CD45 (J.33), CD49a (SR84), CD49b (Gi9), CD49c (C3 II.1), CD49e (IIA1), CD51 (23C6), CD73 (AD2), CD79a (HM47), CD90 (Thy-1/310), CD105 (IG2), CD146 (TEA1/34), CD166 (3[…] (Tu39).

Setting [4] is: osteogenic media without dexamethasone, 8 days.
Where [5] appears, read: osteogenic medium lacking dex, 8 days.

SMILES strings stand for the structures. “Also recorded” adds a separate entry of the source. Bounds are passed on as bounds.

As for `O=C1Nc2cc(Br)ccc2/C1=C1/Nc2ccccc2/C1=N\O` [BIO, bromo-indirubin-3′-mono-oxime], the ALP activity result in the test on hMSCs [1] (setting [4]) is on record as “induced”. In addition, in the test on hMSCs [1] (setting [5]), the “dose at which ALP activity dropped back to control levels” value is recorded as “exceeding 400 nM” and the “dose of maximal effect on ALP activity” value was in the range of 100 to 200 nM.
For `O=C(Nc1ccccc1)c1cc([N+](=O)[O-])ccc1Cl` [GW9662, 2-chloro-5-nitro-N-phenyl-benzamide], the ALP activity result in the test with hMSCs [1] (hMSCs in osteogenic media with GW9662 vs DMSO) is “dose-dependent increase; also recorded: substantially upregulated; also recorded: substantially up-regulated; also recorded: increased”. Further, the ALP activity entry with hMSCs [1] (setting [4]) is given as “induced”. The “dose at which ALP activity dropped back to control levels” value in the test with hMSCs [1] (setting [5]) is over 1.0 µM. Further, in the test with hMSCs [2] (GW9662 vs DMSO), the “calcium content in recovered ECM” value is “elevated calcium levels; also recorded: substantially more calcium mineral than controls”. Also, the “volume of ECM recovered” value with hMSCs [2] (GW9662 vs vehicle treated cells) was “greater volume of ECM; also recorded: substantial increase in the yield”. Moreover, the “ECM nodules by phase contrast microscopy” value in the test with hMSCs [2] (hMSC cultures, GW9662 treatment) is recorded as “distinct formation of nodules; also recorded: increased”. In addition, in the test with hMSCs [3] (GW-treatment), the CD29 % pos stood at 99.97%, the CD29 x-mean was determined as 135, the CD36 % pos was 0.68% and the CD36 x-mean is 1.89. In addition, in the test with hMSCs [3] (GW-treatment), the CD44 % pos is on record as 96.24%, the CD44 x-mean amounted to 7.84, the CD49a % pos is listed as 87.07% and the CD49a x-mean was determined as 3.28. In the test on hMSCs [3] (GW-treatment), this compound yielded a CD49b % pos of 43.09%, a CD49b x-mean of 5.69, a CD49c % pos of 99.93% and a CD49c x-mean of 21.80. In addition, in the test with hMSCs [3] (GW-treatment), the CD49e % pos was found to be 99.99%, the CD49e x-mean was found to be 81.50, the CD51 % pos worked out at 99.92% and the CD51 x-mean is recorded as 15.30. For the same compound, the “CD36 on the surface of hMSCs” value in the test on hMSCs [3] (irrespective of GW9662 treatment) was “No substantial expression”.
